Measured values: patent US7982053B2, “Peptide deformylase inhibitors” (GlaxoSmithKline LLC, priority 2005, dated 2011)

Tested on: Mycobacterium tuberculosis H37Rv
Test: Mycobacterium tuberculosis Susceptibility Assay (Resazurin)
Format: cell-based
Settings: 7H9+ADC medium, 37° C., read-out: MIC (minimal inhibitory concentration)

Row | Compound | MIC [µg/mL]
1 | N#Cc1cccc(C(=O)NC(=O)[C@@H]2CCCN2C(=O)[C@H](CC2CCCC2)CN(O)C=O)c1 [Example 14, N-[(3-cyanophenyl)carbonyl]-1-((2R)-3-cyclopentyl-2-{[formyl(hydroxy)amino]methyl}propanoyl)-L-prolinamide] | ≤ 32
2 | N[C@H]1CC[C@H](OC(=O)NC(=O)[C@@H]2CCCN2C(=O)[C@H](CC2CCCC2)CN(O)C=O)CC1 [Example 19, N-{[(trans-4-aminocyclohexyl)oxy]carbonyl}-1-((2R)-3-cyclopentyl-2-{[formyl(hydroxy)amino]methyl}propanoyl)-L-prolinamide] | ≤ 32
3 | O=CN(O)C[C@@H](CC1CCCC1)C(=O)N1CCC[C@H]1C(=O)NC(=O)c1ccccc1 [Example 3, 1-((2R)-3-cyclopentyl-2-{[formyl(hydroxy)amino]methyl}propanoyl)-N-(phenylcarbonyl)-L-prolinamide] | ≤ 32
4 | O=CN(O)C[C@@H](CC1CCCC1)C(=O)N1CCC[C@H]1C(=O)NC(=O)c1cccc(F)c1 [Example 11, 1-((2R)-3-cyclopentyl-2-{[formyl(hydroxy)amino]methyl}propanoyl)-N-[(3-fluorophenyl)carbonyl]-L-prolinamide] | ≤ 32
5 | O=CN(O)C[C@@H](CC1CCCC1)C(=O)N1CCC[C@H]1C(=O)NC(=O)c1c(F)cccc1F [Example 18, 1-((2R)-3-cyclopentyl-2-{[formyl(hydroxy)amino]methyl}propanoyl)-N-[(2,6-difluorophenyl)carbonyl]-L-prolinamide] | ≤ 32
6 | COCC(=O)NC(=O)[C@@H]1CCCN1C(=O)[C@H](CC1CCCC1)CN(O)C=O [Example 5, 1-((2R)-3-cyclopentyl-2-{[formyl(hydroxy)amino]methyl}propanoyl)-N-[(methyloxy)acetyl]-L-prolinamide] | ≤ 32
7 | Cc1cc(C(=O)NC(=O)[C@@H]2CCCN2C(=O)[C@H](CC2CCCC2)CN(O)C=O)n(C)n1 [Example 8, 1-((2R)-3-cyclopentyl-2-{[formyl(hydroxy)amino]methyl}propanoyl)-N-[(1,3-dimethyl-1H-pyrazol-5-yl)carbonyl]-L-prolinamide] | ≤ 32
8 | Cc1cc(C(=O)NC(=O)[C@@H]2CCCN2C(=O)[C@H](CC2CCCC2)CN(O)C=O)no1 [Example 9, 1-((2R)-3-cyclopentyl-2-{[formyl(hydroxy)amino]methyl}propanoyl)-N-[(5-methyl-3-isoxazolyl)carbonyl]-L-prolinamide] | ≤ 32
9 | CC(=O)NC(=O)[C@@H]1CCCN1C(=O)[C@H](CC1CCCC1)CN(O)C=O [Example 2, N-acetyl-1-((2R)-3-cyclopentyl-2-{[formyl(hydroxy)amino]methyl}propanoyl)-L-prolinamide] | ≤ 32
10 | Cc1cc(C(=O)NC(=O)[C@@H]2CCCN2C(=O)[C@H](CC2CCCC2)CN(O)C=O)nn1C [Example 7, 1-((2R)-3-cyclopentyl-2-{[formyl(hydroxy)amino]methyl}propanoyl)-N-[(1,5-dimethyl-1H-pyrazol-3-yl)carbonyl]-L-prolinamide] | ≤ 32
11 | O=CN(O)C[C@@H](CC1CCCC1)C(=O)N1CCC[C@H]1C(=O)NC(=O)c1ccccc1F [Example 10, 1-((2R)-3-cyclopentyl-2-{[formyl(hydroxy)amino]methyl}propanoyl)-N-[(2-fluorophenyl)carbonyl]-L-prolinamide] | ≤ 32
12 | O=CN(O)C[C@@H](CC1CCCC1)C(=O)N1CCC[C@H]1C(=O)NC(=O)c1ccc(F)cc1 [Example 1, 1-((2R)-3-cyclopentyl-2-{[formyl(hydroxy)amino]methyl}propanoyl)-N-[(4-fluorophenyl)carbonyl]-L-prolinamide] | ≤ 32
13 | O=CN(O)C[C@@H](CC1CCCC1)C(=O)N1CCC[C@H]1C(=O)NC(=O)c1ccc(N2CCOCC2)nc1 [Example 20, N-[1-((2R)-3-cyclopentyl-2-{[formyl(hydroxy)amino]methyl}propanoyl)-L-prolyl]-6-(4-morpholinyl)-3-pyridinecarboxamide] | ≤ 32
14 | Cc1ccc(C(=O)NC(=O)[C@@H]2CCCN2C(=O)[C@H](CC2CCCC2)CN(O)C=O)cc1F [Example 12] | ≤ 32
15 | O=CN(O)C[C@@H](CC1CCCC1)C(=O)N1CCC[C@H]1C(=O)NC(=O)c1ccc(C(F)(F)F)nc1 [Example 6, N-[1-((2R)-3-cyclopentyl-2-{[formyl(hydroxy)amino]methyl}propanoyl)-L-prolyl]-6-(trifluoromethyl)-3-pyridinecarboxamide] | ≤ 32
16 | O=CN(O)C[C@@H](CC1CCCC1)C(=O)N1CCC[C@H]1C(=O)NC(=O)c1cc(F)ccc1F [Example 15, 1-((2R)-3-cyclopentyl-2-{[formyl(hydroxy)amino]methyl}propanoyl)-N-[(2,5-difluorophenyl)carbonyl]-L-prolinamide] | ≤ 32
17 | O=CN(O)C[C@@H](CC1CCCC1)C(=O)N1CCC[C@H]1C(=O)NC(=O)c1ccncc1 [Example 17, N-[1-((2R)-3-cyclopentyl-2-{[formyl(hydroxy)amino]methyl}propanoyl)-L-prolyl]-4-pyridinecarboxamide] | ≤ 32
